Measurements as given in paper PMC9318536, “Novel Cyclic Peptides for Targeting EGFR and EGRvIII Mutation for Drug Delivery” (Pharmaceutics, 2022).
Entries after “also recorded” stand apart in the source; their conditions may differ. Where two headings read alike, the source gives them in different places. Marks after values point to notes of the source that are not given here. Positions of bridges follow the written chain, without caps; N, C: chain ends. Residues, ends and D or L forms follow the SMILES beside them. No end group written: not given here. *: point of attachment. Camptothecin(20S-OCO) = CC[C@@]1(OC(=O)*)C(=O)OCc2c1cc1n(c2=O)Cc2cc3ccccc3nc2-1; GABA = NCCCC(=O)O

Experiments:
H1299 cells = assay: XTT cytotoxicity of peptides, peptide-CPT conjugates and CPT on H1299 cells; details: for cell viability relative to control untreated cells (IC50 could not be calculated): H1299, XTT; for IC50: Homo sapiens
Protocol: (§1) Cell growth in the presence of PDCs was measured by a commercial XTT assay kit (Cell Proliferation Kit, XTT based; Sartorius, Israel). The cells were seeded in 96-well plates (10^4 cells/well) and incubated overnight in a complete growth medium. They were then washed and re-cultured in 100 µL of fresh complete medium containing various concentrations of free drugs or PDCs, for 24, 48, and 72 h. The XTT solution was added to each well and the plate was further incubated for 2–3 h at 37 °C. The optical densities in the wells were measured at both 480 and 680 nm using a TECAN Infinite M200 ELISA reader. All tests were performed in triplicate, and each experiment was repeated three times.
(§2) The cytotoxicity of the PDCs was tested against H1299 and DKMG cells using two protocols. In the first protocol, cells were incubated in a complete medium containing a range of concentrations (0.5–50 µM) of P6, P9, P6-CPT, or P9-CPT for 6 h, after which, the medium was replaced with fresh, drug-free, complete medium, and the cells were cultured for an additional 24 h (designated as 6h24h) or 48 h (6h48h). In the second protocol, cells were exposed continuously to free drugs or PDCs for 24, 48, and 72 h. For each case, during the culture period, cell cytotoxicity was determined as described above and IC50 values were calculated.

DKMG cells = assay: XTT cytotoxicity of peptides, peptide-CPT conjugates and CPT on DKMG cells; format: cell-based; details: for cell viability relative to control untreated cells (IC50 could not be calculated) / IC50 / effect on cell viability (in words): XTT; for IC50: non-linear regression, mean ± SD, triplicate; for effect on cell viability (in words): 24 h pre-incubation protocol
Protocol: as §1, §2

[1] = Drug release / PDC breakdown in complete growth medium; format: in vitro ADME; details: RPMI and DMEM complete growth media, 37 °C, 0–72 h, LC–MS, triplicate
Protocol: PDC breakdown rates were determined as described elsewhere. Briefly, peptide-FITC and peptide–CPT conjugates were incubated at 37 °C in 1 mL of DMEM or RPMI full-growth medium for […], 3, 7, 24, 48, and 72 h. At each time point, 10 µL of the sample was taken and mixed with 25 µL ACN/H20 (1:1, v/v.). The samples were centrifuged at 1400 rpm for 15 min. Supernatants were collected, filtered, and analyzed by liquid chromatography–mass spectrometry (LC–MS).
The release rates of CPT from P6-CPT and P9-CPT were measured in RPMI and DMEM complete growth media at 37 °C for 0, 0.5, 3, 7, 24, 48, and 72 h according to the procedure. The degradation of the conjugates and the CPT release were analyzed by LC–MS. […] The conjugates degraded with a half-life of 6–7 h (Figure 8).

EGFR on H1299 cells = target: T1, EGFR on H1299 cells (Homo sapiens, UniProt P00533); assay: Competitive binding assay with EGF by FACS; format: cell-based; details: H1299, 2.5 µM FITC-labeled peptides with or without 80 nM EGF, 4 °C 1 h then 37 °C 15 min, duplicate
T1 construct: H1299, H1975, and DKMG cells were characterized by cell surface overexpression of EGFR; endogenous in cells; host or cells: H1299 cells (ATCC)
Protocol: H1299 and DKMG cell lines were cultured in a complete RPMI growth medium in a 6-well plate overnight, until 80% confluent. Pre-incubation was performed with a blocking buffer consisting of 5 mg/mL BSA in PBS, pH 7.4, at 4 °C for 30 min. Then, cells were washed twice in PBS and incubated with 2.5 µM of FITC-labeled peptides with or without 80 nM EGF at 4 °C for 1 h. The cells were then incubated for 15 min at 37 °C under 5% CO2 to allow for peptide internalization. The cells were washed twice by centrifugation at 265× g for 5 min and analyzed by flow cytometry.
Figure 3 Competitive uptake of P3, P4, P5, P6, P9, and P11 peptides by FACS. Fluorescence was measured for H1299 cells (30,000 cells) after incubation with (2.5 µM) P3–P6, P9, and P11 by FITC-labeled peptides in the absence or presence of 80 nM of the EGF protein. The experiments were performed in duplicate. For each sample, the mean ± SD is shown (** p < 0.01, *** p < 0.001).

[2] = 6 h exposure then 24 h drug-free medium (6h24h), 0.5–50 µM
[3] = H1299, first protocol (6 h preincubation, then up to 48 h), XTT

Compound	cytotoxic effect (in words) (H1299 cells; [3])	half-life of conjugate degradation (CPT release) [1] [h]	effect on cell viability (in words) (DKMG cells)	cytotoxic effect (in words) (H1299 cells)	competition of EGF with peptide uptake (EGFR on H1299 cells)	also measured
CC[C@@]1(O)C(=O)OCc2c1cc1n(c2=O)Cc2cc3ccccc3nc2-1 [CPT, camptothecin]						cell viability relative to control untreated cells (IC50 could not be calculated) (H1299 cells; [2]): >50% *; cell viability relative to control untreated cells (IC50 could not be calculated) (H1299 cells; continuous exposure 48 h): <45%; cell viability relative to control untreated cells (IC50 could not be calculated) (H1299 cells; continuous exposure 72 h): <15%; IC50 (H1299 cells; NCI-H1299): 6.7 ± 1.8 µM; IC50 (H1299 cells; NCI-H1299, 24 h): 54.8 ± 2 µM; cell viability relative to control untreated cells (IC50 could not be calculated) (DKMG cells; [2]): >50% *; IC50 (DKMG cells; 6 h exposure then 48 h in drug-free medium (6h48h), 0.5–50 µM): 8.5 ± 1 µM; IC50 (DKMG cells; continuous exposure 24 h): 25 ± 1.3 µM; cell viability relative to control untreated cells (IC50 could not be calculated) (DKMG cells; continuous exposure 48 h): <50% **; cell viability relative to control untreated cells (IC50 could not be calculated) (DKMG cells; continuous exposure 72 h): <40% **
CC[C@@]1(OC(=O)NCCCC(=O)N[C@H]2CSSC[C@@H](C(N)=O)NC(=O)[C@H](Cc3ccc(O)cc3)NC(=O)[C@H](CO)NC(=O)[C@H](CCC(N)=O)NC(=O)[C@H](CCSC)NC(=O)[C@H](C)NC(=O)[C@H](CC(N)=O)NC(=O)[C@H](C(C)C)NC2=O)C(=O)OCc2c1cc1n(c2=O)Cc2cc3ccccc3nc2-1 [P9-CPT] ({Camptothecin(20S-OCO)-GABA}-CVNAMQSYC-NH2; disulfide 1-9; C-terminus assumed)	exhibited cytotoxic effects after 48 h	6 to 7	did not affect cell viability			IC50 compared to free CPT (DKMG cells; 6 h exposure then 48 h): four-fold higher
CSCC[C@@H]1NC(=O)[C@H](C)NC(=O)[C@H](CC(N)=O)NC(=O)[C@H](C(C)C)NC(=O)[C@@H](N)CSSC[C@@H](C(=O)O)NC(=O)[C@H](Cc2ccc(O)cc2)NC(=O)[C@H](CO)NC(=O)[C@H](CCC(N)=O)NC1=O [P9] (H-CVNAMQSYC-OH; disulfide 1-9)			did not affect cell viability	not toxic	EGF significantly competed; also recorded: better competition with EGF compared to P11	
CC[C@H](C)[C@@H]1NC(=O)[C@H](Cc2ccc(O)cc2)NC(=O)[C@H](CO)NC(=O)CNC(=O)[C@@H]2CCCN2C(=O)[C@H](C(C)C)NC(=O)[C@H](Cc2cnc[nH]2)NC(=O)[C@@H](NC(=O)CCCNC(=O)O[C@]2(CC)C(=O)OCc3c2cc2n(c3=O)Cc3cc4ccccc4nc3-2)CSSC[C@@H](C(N)=O)NC1=O [P6-CPT] ({Camptothecin(20S-OCO)-GABA}-CHVPGSYIC-NH2; disulfide 1-9)	exhibited cytotoxic effects after 48 h	6 to 7				
CAQYTPGRC (disulfide 1-9) [P11]					EGF significantly competed	
CC[C@H](C)[C@@H]1NC(=O)[C@H](Cc2ccc(O)cc2)NC(=O)[C@H](CO)NC(=O)CNC(=O)[C@@H]2CCCN2C(=O)[C@H](C(C)C)NC(=O)[C@H](Cc2c[nH]cn2)NC(=O)[C@@H](N)CSSC[C@@H](C(=O)O)NC1=O [P6] (H-CHVPGSYIC-OH; disulfide 1-9)				not toxic	better competition with EGF compared to P11	
